Data as given in US20050214945A1, “Htlv-I tax induced killing of p53 null cancer cells” (Eastern Virginia Medical School, priority 2002, published 2005).

Columns and labels:
REF52 cells [1] = assay: UV-induced apoptosis, Vybrant Apoptosis Assay; format: cell-based, rat; conditions: Tax-expressing REF52 following UV exposure
Method: (§1) Tax-expressing cells were treated with different UV doses (0, 20 and 50 j/m^2) and assessed at different time points post-transduction (4, 8, 12 and 24 hrs). Cells were separated into living, necrotic or apoptotic populations using the triple source fluorescent labeling, Vybrant Apoptosis Assay kit (Molecular Probes) according to the manufacturer's recommendations.
In addition to repair, at least two key events occured in the UV-induced cellular DNA damage response. These are initiation of cell cycle arrest and induction of apoptosis. The ability of Tax-expressing REF52 cells to undergo cell cycle arrest and apoptosis was assessed. Tax-expressing and control cells were subjected to UV irradiation and examined for apoptotic events and cell cycle profile. Prior to exposure to UV, the percent of non-apoptotic, apoptotic and necrotic cells were examined. The three populations were identified using the Vybrant assay. […] The same results were seen using several Tax-expressing cells including GM00010B (data not shown).

REF52 cells [2] = assay: Global nucleotide excision repair assay (unscheduled DNA synthesis, BrdU); format: cell-based, rat; conditions: G1 synchronized cells, UV 20 j/m^2, BrdU
Method: REF52 cells were seeded onto glass coverslips and transduced to express Tax at 25% efficiency. Sub-confluent Tax-expressing REF52 cells were cultured in 0.5% serum for 48 hrs, to synchronize at G0, prior to irradiation. The cells were released from G0 with addition of complete medium. At four hours post-release, the cells were irradiated with UV light (20 j/m^2) using a UV chamber-GS Gene Linker (Bio-Rad) and incubated for 30 min with 10 μM BrdU containing medium. The cells were then washed 4× with PBS and fixed in 4% paraformaldehyde. Cells were permeabilized with 2 minutes incubation in 100% methanol and washed 4× with PBS. The prepared cells were then reacted with both anti-Tax and anti-BrdU in PBS (containing 2% BSA). Primary antibodies were removed by washing 4× with 1% Tween 20 in PBS (PBS-Tween). Secondary conjugated antibodies were reacted for one hour at room temperature (RT). The cells were then washed with PBS-Tween and the slips were inverted onto slides with Vecta Shield (Vector Laboratories, CA). Incorporation of BrdU into the nucleus of cells at G1 corresponded to unscheduled repair synthesis.
A failure in damage-induced cell cycle arrest would result in reduced repair efficiency and could explain the Tax-associated NER deficiency. […]

REF52 cells [3] = assay: Host cell reactivation assay (nucleotide excision repair capacity); format: cell-based, rat; conditions: Tax-expressing REF52 vs control GFP-expressing REF52; UV-damaged CAT reporter
Method: pSV2-CAT reporter plasmid was damaged ex vivo by exposure to 1000 j/m^2 of Uv-C light using a UV chamber-GS Gene Linker (Bio-Rad). REF52 and XP-A cells were transfected with 4 μg of UV-irradiated or non-irradiated pSV2-CAT plasmid together with an undamaged reporter plasmid (pMSV-Luc), and with or without Tax plasmid. Forty-eight hours after calcium phosphate transfection, cells were pelleted and resuspended in 250 μl of 250 mM Tris pH8.0. For the Luciferase assay, 25 μl of the total cellular extract was added to 50 μl of luciferase substrate. Luciferase activity was quantitated in a Luminometer. Cat assays were performed in parallel with the same cells as described (Semmes, O., et al., J. Virol. 66(12):7183-92 (1992)). Cat activity was normalized to luciferase activity of the same extract. Repair activity was calculated by setting normalized cat activity from cells cotransfected with non-irradiated pSV2-CAT to 100%. The repair activity of duplicate cells cotransfected with irradiated pSV2-CAT was reported as a percentage of that activity.
In examining the biological response of Tax-expressing cells to UV-induced DNA damage, efficient Nucleotide Excision Repair (NER) ability was tested. The Host Cell Reactivation Assay (HCRA) was used as a measure of NER capacity in Tax-expressing REF52 cells. […] Thus, Tax expression results in reduced NER capacity as measured by HCRA.

p53−/− cells [4] = assay: UV-induced apoptosis, Vybrant Apoptosis Assay; format: cell-based; conditions: UV 20 and 50 J/m^2, 12 and 24 hours
Method: as §1
The early apoptotic response of Tax-expressing p53−/− cells was also observed. In this series of experiments the cell groups were exposed to 0 J/m^2, 20 J/m^2 and 50 J/m^2 and apoptosis measured at 12 and 24 hours (FIG. 7). […] This level of UV-induced apoptosis is equivalent to that seen in cells defective in NER (FIG. 3).

REF52 cells [5] = assay: Cytokinesis block cell cycle progression assay; format: cell-based, rat
Method: (§2) Asynchronous cell cultures were seeded on coverslips and exposed to UV irradiation and allowed to recover for 1 hour. Cytochalasin B was added and the cultures incubated for 36 hours. The coverslips were fixed with paraformaldehyde/methanol and stained with propidium iodide. Slides were prepared and cell nuclei examined by microscopy. Bi-nucleus cells were considered dividing.
Next, the cell cycle response of Tax-expressing cells was measured. REF52 and REF+Tax cells were subjected to the cytokinesis block cell cycle arrest assay to determine the intactness of the damage-induced checkpoint. In this assay, asynchronous cells were exposed to UV and incubated with cytochalasin B one hour later. The cell population was examined 36 hours later and assessed for division events. […] In contrast REF52 cells exposed to UV light initiated cell cycle arrest and presented a predominately (>90%) mononuclear cell population. However, Tax-expressing REF52 cells, exposed to UV, presented nearly 75% of the population as binucleated cells indicating a failure to arrest in cell cycle in response to UV-induced DNA damage. For each data point, 1000 cells were analyzed.

[6] = system: Hela cells and p53 deleted cell line; assay: Cytokinesis block cell cycle progression assay in p53 repressed/deleted cells; format: cell-based; conditions: exposed to UV, cytochalasin B, 36 hours; partial (25%) and 100% transduction
Method: as §2
To test this hypothesis, the cell cycle arrest response was examined in Tax-expressing and control p53−/− cells. Tax-expressing and control Hela cell groups were subjected to the cytokinesis block cell cycle progression assay as described above. Each cell group was exposed to UV and incubated with cytochalasin B one hour later. The cells were examined after 36 hours for the presence of binucleated dividing cells. Hela cells transduced to express Tax at 25% efficiency. Tax-expressing Hela cells were identified by immunofluorescence using anti-Tax mouse monoclonal antibody and FITC-conjugated anti-mouse secondary antibody. The nuclei were stained with propidium iodide. Hela and Tax-expressing Hela formed binuclei indicating normal division. […] In experiments using 100% transduction of Tax, 1000 cell events were counted.

REF52 and p53d cells = assay: Flow cytometry cell cycle analysis (G1 checkpoint) after UV; format: cell-based; conditions: synchronized at G0, UV treatment, 20% serum; wild type or deleted p53 background
Method: For cell cycle analysis, cells were collected by gentle scraping following a rapid EDTA rinse and concentrated by low speed centrifugation and washed in 1×PBS, and fixed with cold 70% ethanol. Cells were stained with a PI solution (PBS 1×, RNase A [10 μg/ml], and Propidium Iodide [50 μg/ml]) followed by cell sorting analysis. FACS data acquired were analyzed by CellQuest software.
To determine whether the failure in cell cycle arrest was due to a failed G1 checkpoint, cells were synchronized at G0 by serum starvation. The cells were then cultured in 20% serum to stimulate return to cell cycle following UV treatment. Cell cycle was determined by total DNA content as described above. […] This was true for either a wild type or deleted p53 background. Therefore, the failure in cell cycle arrest is due at least in part to a failed G1 arrest.

[7] = system: p53 mutant background (HeLa); assay: Percent surviving cells after sublethal UV; format: cell-based; conditions: 24 hours after treatment, vs control cells
Method: (§3) It was reasoned that if Tax-expressing cells display impaired damage response in a p53 independent manner then cells both deleted for p53 and expressing Tax would be more prone to apoptotic cell death in response to UV. To test this hypothesis, the apoptotic response of both Tax-expressing and control p53−/− cells was examined. Tax-expressing and control cells were exposed to sublethal doses of UV and examined for percent surviving cells 24 hours after treatment.

p53−/− cells [8] = assay: Percent surviving cells after sublethal UV; format: cell-based; conditions: 24 hours after treatment
Method: as §3

p53 and p21 = assay: Immunoblot of p53 and p21 after UV; format: cell-based, rat; conditions: UV-induced DNA damage; Tax-expressing and control REF52
Method: Approximately 2×10^6 cells were harvested and proteins extracted with […] Mammalian Protein Extraction Reagent (Pierce). 50 μl of 4× Laemmli buffer was added to the lysate. […] of the lysate was electrophoresed through a 10% SDS polyacrylamide gel. The proteins were electroblotted onto an Immobolin-P membrane (Millipore), and probed with the indicated primary antibody and the appropriate secondary alkaline phosphatase-conjugated antibody. Immunoreactivity was detected via Western Star chemiluminescence protein detection (Tropix).
To further analyze the p53 response in Tax-expressing cells, both Tax-expressing and control REF52 cells were examined for stabilization of steady-state p^53 and transient induction of p21. Since induction of p21 is a key event in p53-mediated cell cycle arrest, analysis of the p21 levels in Tax-expressing cells could determine the integrity of this signal. Tax-expressing and control cells were exposed to UV and harvested for western analysis pre-exposure and at eight hours and twenty four hours post exposure. […] Thus, one p53-dependent signal for cell cycle arrest, transient induction of p21, was intact.

p53+/+ cells (REF52) = assay: Percent surviving cells after sublethal UV; format: cell-based, rat; conditions: 24 hours after treatment, vs control cells
p53 = assay: Nuclear accumulation of p53 after UV (immunostaining); format: cell-based, rat; conditions: Tax-expressing REF52 in response to UV damage
Description: A key player in initiation of the UV-repair response and activation of cell cycle arrest is p53. Activation of p53 is signaled by an accumulation of P53 in the nucleus of cells exposed to UV light. To examine whether Tax-expressing cells display this early p53 response, REF52 cells were transduced with suboptimal viral titers to produce an estimated 50% transduction efficiency. The cells were exposed to UV and examined for nuclear expression of p53.

## Tax
REF52 cells [1]
  apoptotic response to DNA damage: normal apoptotic response
REF52 cells [2]
  UV-induced unscheduled DNA synthesis: indistinguishable from control cells
REF52 cells [3]
  NER capacity: significantly reduced
p53−/− cells [4]
  apoptosis: Significant apoptosis
REF52 cells [5]; exposed to UV, cytochalasin B, examined 36 hours later, 1000 cells per data point
  binucleated cells: ~75%
REF52 cells [5]; unexposed to UV
  binucleated cell profile without UV: same profile as in the absence of Tax
[6]
  percent of binucleated cells: > 72%
REF52 and p53d cells
  percentage of cells leaving G1: consistent and significant increase
[7]
  percent of surviving cells: no decreased percent of surviving cells
p53−/− cells [8]
  cell death in response to UV exposure: significant cell death
p53 and p21
  steady-state protein levels of p53: stabilization of steady-state protein levels of p53
p53+/+ cells (REF52)
  percent of surviving cells: no decreased percent of surviving cells
p53
  nuclear accumulation of P53: strong nuclear accumulation of P53
